In ChEMBL document CHEMBL1145414, “Candidaspongiolides, distinctive analogues of tedanolide from sponges of the genus Candidaspongia” (2007):
Values after ≈ are worked out from the molar mass of the structure shown.

Assay: Cytotoxicity against NCI60 cells
Type: functional
Details: Homo sapiens

| SMILES | GI50 [ng/mL] |
| --- | --- |
| C/C=C\[C@H](C)[C@H]1O[C@@]1(C)[C@@H](O)[C@H]1COC(=O)[C@H](O)[C@@H](OC)[C@H](C)C(=O)[C@H](C)[C@@H](O)/C(C)=C/[C@H](C)C(=O)CC[C@@H](C)C1=O | 0.09 (≈ 0.000151 µM) |
| C/C=C\[C@H](C)[C@H]1OC1(C)[C@@H](O)[C@H]1COC(=O)[C@H](O)[C@@H](OC)[C@H](C)C(=O)[C@H](C)[C@@H](OC(C)=O)/C(C)=C/[C@H](C)C(=O)C[C@H](O)[C@@](O)(CO)C1=O (single isomer, unassigned) | 42 (≈ 0.0613 µM) |
